These results are taken from US12233161B1, “Lipids and lipid nanoparticle formulations” (LONGUIDE BIOPHARMA CORPORATION, priority 2024, dated 2025).

Each structure is given as a SMILES string.

This assay has as its system mice. Nature of the assay: In vivo delivery of FLuc-mRNA lipid nanoparticles in mice, in vivo imaging (IVIS). The settings on record: for IVIS / % of organ targeting: Fluc-mRNA LNP; for organ targeting specificity (spleen or lung), in words: Table 3, Fluc-mRNA, various formulations. As to the method:
After the preparation was completed, the preparation was injected intramuscularly (mice rectus femoris muscle of the thigh), intravenously (mice tail vein), or intraperitoneal injection or subcutaneous injection (subcutaneous on the back), with approximately 75 μL per mouse, for a total of 3 mice. After a certain time of injection, in vivo imaging (PerkinElmer, IVIS Lumina III) was performed. 10-15 minutes before imaging, 200 μL of 15 mg/mL D-Luciferin working solution was injected intraperitoneally, and the imaging analysis was performed using an in vivo imager.

The mark [1] stands for this setting: route IM, 1 h (live), DSPE-PEG5000:DSPC:Chol:compound 1.40:11.15:38.95:48.50, N/P 30.
Where [2] appears, read: route IM, 1 h (lung), DSPE-PEG5000:DSPC:Chol:compound 1.40:11.15:38.95:48.50, N/P 30.
Where [3] appears, read: route IM, 1 h (spleen), DSPE-PEG5000:DSPC:Chol:compound 1.40:11.15:38.95:48.50, N/P 30.
The mark [4] stands for this setting: route IM, 2 h (live), DSPE-PEG5000:DSPC:Chol:compound 1.40:11.15:38.95:48.50, N/P 30.
Setting [5] is: route IM, 2 h (lung), DSPE-PEG5000:DSPC:Chol:compound 1.40:11.15:38.95:48.50, N/P 30.
Where [6] appears, read: route IM, 2 h (spleen), DSPE-PEG5000:DSPC:Chol:compound 1.40:11.15:38.95:48.50, N/P 30.
The mark [7] stands for this setting: route IM, 3 h (live), DSPE-PEG5000:DSPC:Chol:compound 1.40:11.15:38.95:48.50, N/P 30.
The mark [8] stands for this setting: route IM, 3 h (lung), DSPE-PEG5000:DSPC:Chol:compound 1.40:11.15:38.95:48.50, N/P 30.
[9] abbreviates: route IM, 3 h (spleen), DSPE-PEG5000:DSPC:Chol:compound 1.40:11.15:38.95:48.50, N/P 30.
Where [10] appears, read: route IM, 6 h (live), DSPE-PEG5000:DSPC:Chol:compound 1.40:11.15:38.95:48.50, N/P 30.
Setting [11] is: route IM, 6 h (lung), DSPE-PEG5000:DSPC:Chol:compound 1.40:11.15:38.95:48.50, N/P 30.
Where [12] appears, read: route IM, 6 h (spleen), DSPE-PEG5000:DSPC:Chol:compound 1.40:11.15:38.95:48.50, N/P 30.
The mark [13] stands for this setting: route IM, organ not given, formulation, molar ratio and N/P as in the table.
Setting [14] is: route IV, organ: body, formulation, molar ratio and N/P as in the table.
Where [15] appears, read: route IV, organ: liver, formulation, molar ratio and N/P as in the table.
Where [16] appears, read: route IV, organ: lung, formulation, molar ratio and N/P as in the table.
The mark [17] stands for this setting: route IV, organ: spleen, formulation, molar ratio and N/P as in the table.
Setting [18] is: route IV, organ not given, formulation, molar ratio and N/P as in the table.
[19] abbreviates: route IM, organ: liver, formulation, molar ratio and N/P as in the table.
Where [20] appears, read: route IM, organ: lung, formulation, molar ratio and N/P as in the table.
[21] abbreviates: route IM, organ: muscle, formulation, molar ratio and N/P as in the table.
[22] abbreviates: route IM, organ: spleen, formulation, molar ratio and N/P as in the table.

For the compound `CCCCCCC(CCCCCC)C(=O)NCCOC(=O)C(O)CN(CCCN(C)CCCN(CC(O)C(=O)OCCNC(=O)C(CCCCCC)CCCCCC)CC(O)C(=O)OCCNC(=O)C(CCCCCC)CCCCCC)CC(O)C(=O)OCCNC(=O)C(CCCCCC)CCCCCC` (stereo not drawn) [Compound L0361], the IVIS (route IH, organ: body, DSPE-PEG5000:DSPC:Chol:compound 1.40:11.15:38.95:48.50, N/P 30) is recorded as 1.54E+08; the IVIS (route IH, organ: spleen, DSPE-PEG5000:DSPC:Chol:compound 1.40:11.15:38.95:48.50, N/P 30) came to 3.59E+04; the IVIS under setting [1] is recorded as 6.62E+05; the IVIS under setting [2] worked out at 4.37E+04; the IVIS (route IM, 1 h (muscle), DSPE-PEG5000:DSPC:Chol:compound 1.40:11.15:38.95:48.50, N/P 30) was determined as 1.07E+08; the IVIS under setting [3] was 3.25E+05. Further, the IVIS is reported as 7.54E+06 under setting [4]; 1.63E+05 under setting [5]; 1.87E+08 (route IM, 2 h (muscle), DSPE-PEG5000:DSPC:Chol:compound 1.40:11.15:38.95:48.50, N/P 30); 4.77E+06 under setting [6]; 4.54E+06 under setting [7]; 5.32E+05 under setting [8]. Besides, the IVIS was determined as 2.97E+08 (route IM, 3 h (muscle), DSPE-PEG5000:DSPC:Chol:compound 1.40:11.15:38.95:48.50, N/P 30); 5.45E+06 under setting [9]; 1.17E+07 under setting [10]; 6.06E+05 under setting [11]; 2.62E+08 (route IM, 6 h (muscle), DSPE-PEG5000:DSPC:Chol:compound 1.40:11.15:38.95:48.50, N/P 30); 9.42E+06 under setting [12]. The IVIS by setting is: under setting [13], 1.14E+08; under setting [14], 4.99E+07; under setting [15], 1.24E+07; under setting [16], 1.36E+07; under setting [17], 5.05E+07. Further, the “% of organ targeting” value is 63.15% under setting [1]; 4.17% under setting [2]; 31.03% under setting [3]; 58.75% under setting [4]; 1.27% under setting [5]; 37.18% under setting [6]. For the same compound, the “% of organ targeting” value under setting [7] is given as 42.49%; the “% of organ targeting” value under setting [8] stood at 4.98%; the “% of organ targeting” value under setting [9] is 50.95%; the “% of organ targeting” value under setting [10] is reported as 52.52%; the “% of organ targeting” value under setting [11] came to 2.72%; the “% of organ targeting” value under setting [12] was 42.27%.
`CCCCCCCCCCCCNC(=O)C(CN(CCCN(C)CCCN(CC(OC(=O)CCCCC)C(=O)NCCCCCCCCCCCC)CC(OC(=O)CCCCC)C(=O)NCCCCCCCCCCCC)CC(OC(=O)CCCCC)C(=O)NCCCCCCCCCCCC)OC(=O)CCCCC` (stereo not drawn) [Compound L0389]: the IVIS under setting [13] is listed as 1.99E+04 and the IVIS under setting [18] is 2.50E+05.
Turning to `CCCCCCCC(CCCCCCC)OC(=O)CCCNC(=O)C(O)CN(CCN(C)CCN(CC(O)C(=O)NCCCC(=O)OC(CCCCCCC)CCCCCCC)CC(O)C(=O)NCCCC(=O)OC(CCCCCCC)CCCCCCC)CC(O)C(=O)NCCCC(=O)OC(CCCCCCC)CCCCCCC` (stereo not drawn) [Compound L0383], the “organ targeting specificity (spleen or lung), in words” value (shortened to “organ targeting specificity”) was “strong targeting specificity to deliver to spleen”. For the same compound, under setting [19], the “% of organ targeting” value came to 29.05% and the IVIS came out at 1.91E+05. Also, under setting [20], the “% of organ targeting” value is recorded as 10.07% and the IVIS came out at 6.63E+04. The IVIS under setting [21] is on record as 1.78E+08. In addition, under setting [22], the “% of organ targeting” value is 60.88% and the IVIS is 4.01E+05. In addition, the IVIS under setting [14] is recorded as 2.00E+09. Further, under setting [15], the “% of organ targeting” value came to 68.14% and the IVIS was found to be 4.62E+08. Besides, under setting [16], the “% of organ targeting” value was 2.23% and the IVIS was determined as 1.52E+07. Under setting [17], the “% of organ targeting” value is 29.63% and the IVIS is 2.01E+08.
Turning to `CCCCCCC(CCCCCC)C(=O)OCCCCCCNC(=O)C(O)CN(CCCN(CC(O)C(=O)NCCCCCCOC(=O)C(CCCCCC)CCCCCC)CC(O)C(=O)NCCCCCCOC(=O)C(CCCCCC)CCCCCC)CCCN(CC(O)C(=O)NCCCCCCOC(=O)C(CCCCCC)CCCCCC)CC(O)C(=O)NCCCCCCOC(=O)C(CCCCCC)CCCCCC` (stereo not drawn) [Compound L0360], the IVIS under setting [13] was found to be 1.44E+07 and the IVIS under setting [18] stood at 4.50E+08.
For the compound `CCCCCCC(CCCCCC)C(=O)NCCNC(=O)C(O)CN(CCN(C)CCN(CC(O)C(=O)NCCNC(=O)C(CCCCCC)CCCCCC)CC(O)C(=O)NCCNC(=O)C(CCCCCC)CCCCCC)CC(O)C(=O)NCCNC(=O)C(CCCCCC)CCCCCC` (stereo not drawn) [Compound L0380], the “% of organ targeting” value was 61.06% under setting [19]; 1.54% under setting [20]; 37.40% under setting [22]; 96.36% under setting [15]; 0.40% under setting [16]; 3.24% under setting [17]. Besides, the IVIS by setting is: under setting [19], 3.14E+07; under setting [20], 7.90E+05; under setting [21], 4.58E+08; under setting [22], 1.92E+07; under setting [14], 7.98E+09; under setting [15], 2.14E+09. Moreover, the IVIS under setting [16] was 8.80E+06 and the IVIS under setting [17] was 7.18E+07.
For `CCCCCCCCC(CCCCCC)C(=O)OCCCCNC(=O)C(O)CCN(CCCN(C)CCN(CC(O)C(=O)NCCCCOC(=O)C(CCCCCC)CCCCCCCC)CC(O)C(=O)NCCCCOC(=O)C(CCCCCC)CCCCCCCC)C(O)C(=O)NCCCCOC(=O)C(CCCCCC)CCCCCCCC` (stereo not drawn) [Compound L0377], the “organ targeting specificity” value is “strong targeting specificity to deliver to spleen”. Further, under setting [19], the “% of organ targeting” value came to 35.08% and the IVIS worked out at 1.59E+05. Under setting [20], the “% of organ targeting” value was determined as 6.58% and the IVIS is given as 2.98E+04. Moreover, under setting [21], the IVIS came out at 3.71E+07. Under setting [22], the “% of organ targeting” value worked out at 58.34% and the IVIS was 2.64E+05. Under setting [14], the IVIS is on record as 1.81E+08. Under setting [15], the “% of organ targeting” value worked out at 38.23% and the IVIS is reported as 6.08E+07. Under setting [16], the “% of organ targeting” value was determined as 4.20% and the IVIS turned out to be 6.67E+06. Under setting [17], the “% of organ targeting” value is given as 57.57% and the IVIS turned out to be 9.15E+07.
With `CCCCCCC(CCCCCC)C(=O)OCCCCCCNC(=O)C(O)CN(CCCN(C)CCCN(CC(O)C(=O)NCCCCCCOC(=O)C(CCCCCC)CCCCCC)CC(O)C(=O)NCCCCCCOC(=O)C(CCCCCC)CCCCCC)CC(O)C(=O)NCCCCCCOC(=O)C(CCCCCC)CCCCCC` (stereo not drawn) [Compound L0358], under setting [13], the IVIS was determined as 1.45E+07.
For `CCCCCCCCC(CCCCCC)C(=O)OCCCCNC(=O)C(O)CN(CCCN(C)CCCN(CC(O)C(=O)NCCCCOC(=O)C(CCCCCC)CCCCCCCC)CC(O)C(=O)NCCCCOC(=O)C(CCCCCC)CCCCCCCC)CC(O)C(=O)NCCCCOC(=O)C(CCCCCC)CCCCCCCC` (stereo not drawn) [Compound L0376], the “organ targeting specificity” value is reported as “strong targeting specificity to deliver to spleen”. In addition, under setting [19], the “% of organ targeting” value worked out at 30.06% and the IVIS worked out at 2.21E+05. Also, under setting [20], the “% of organ targeting” value is 5.80% and the IVIS amounted to 4.27E+04. Also, the IVIS under setting [21] worked out at 2.06E+07. Also, under setting [22], the “% of organ targeting” value stood at 64.14% and the IVIS stood at 4.72E+05. Also, under setting [14], the IVIS worked out at 5.58E+07. Besides, under setting [15], the “% of organ targeting” value was 14.62% and the IVIS is 1.64E+07. Under setting [16], the “% of organ targeting” value is on record as 20.78% and the IVIS amounted to 2.32E+07. In addition, under setting [17], the “% of organ targeting” value is on record as 64.60% and the IVIS came to 7.23E+07.
